Literature values as cited in patent publication US9675546B2, “Method of treating atrophic vaginitis” (priority 2006, dated 2017).
Read-outs that look alike come from different tables or passages of the source.

Legend:
[1] = not given; remark: listed apart in the source
breast cancer risk = conditions: progestogen combined with estrogens in HRT users
[2] = not given; remark: listed apart in the source
[3] = single oral dose of 20 mg tamoxifen

SMILES: CC(=O)O[C@]1(C(C)=O)CC[C@H]2[C@@H]3C[C@H](C)C4=CC(=O)CC[C@]4(C)[C@H]3CC[C@@]21C [MPA, Medroxyprogesterone Acetate]
- Cardiovascular Events (in vivo): MPA: may cause fluid retention and edema, increases incidence
- Glucose/Insulin (in vivo): MPA: has been found to cause deterioration of glucose tolerance
- Lipid Profile (in vivo): MPA: adversely effects lipid profile and negates the beneficial
- Liver function (in vivo): MPA: contraindicted in patients with liver dysfunction.
- Sleep and Mood (in vivo): MPA: can cause insomnia, mental depression, and anxiety.

SMILES: CC/C(=C(\c1ccccc1)c1ccc(OCCN(C)C)cc1)c1ccccc1 [tamoxifen, 1-(p-dimethylamino-ethoxphenyl)-2-ethyl-1,2-diphenylethylene]
- Time to steady state concentrations after initiation of therapy ([1]; oral): about 4 weeks
- Average steady state plasma concentration ([1]; oral, once daily for 3 months): 122 ng/mL
- Average peak plasma concentration [1, 3]: 40 ng/mL
- Time of peak plasma concentration after dosing [1, 3]: approximately 5 hours

SMILES: CC(=O)[C@H]1CC[C@H]2[C@@H]3CCC4=CC(=O)CC[C@]4(C)[C@H]3CC[C@]12C [progesterone, pregn-4-ene-3, 20-dione]
- Risk of breast cancer (RR) (breast cancer risk): 0.9
- Quality of life/menopausal symptoms: women with significant improvement in symptoms (MP-containing HRT compared with MPA-containing regimen): symptoms in 80%.
- Cardiovascular Events (in vivo): MP: has antihypertensive action and can be safely used to treat
- Glucose/Insulin (in vivo): MP: augments the pancreatic response to glucose and increases
- Liver function (in vivo): MP: does not effect liver enzymes or cause livie related side
- Sleep and Mood (in vivo): MP: improves the quality of sleep and has sedative properties.
- Serum concentration ([2]; 25 mg progesterone vaginal suppository): 7.27 ng/mL
- Serum concentration ([2]; 50 mg progesterone vaginal suppository): 8.84 ng/mL
